Results taken from US20110105389A1 (priority 2009, published 2011).
Where two headings read alike, the source gives them in different places.

Tests used:
[1] = target: T1, ghrelin receptor (HEK-GHSR1 stable cells) (Homo sapiens, UniProt Q92847); experiment: Ghrelin receptor inverse agonist assay (HTRF IP-one), Method B4; assay type: cell-based; conditions: inverse agonist at the ghrelin receptor, Method B4
T1 construct: expressed in transfected cells
Text: B4. Ghrelin Receptor Inverse Agonist Assay […]
In addition, the following method can be utilized to assay for inverse agonist activity. (Thomsen, W.; et al. Curr. Opin. Biotechnol. 2005, 16, 655-665; Tozawa-Takahashi F; et al., 11th SBS Annual Conference. September 2005, Geneva; Trinquet, E.; Fink, M.; Bazin, H.; et al. Anal. Biochem. 2006, 358, 126-135; Bergsdorf, C.; Kropp-Goerkis, C.; Kaehler, I.; Ketscher, L.; Boerner, U.; Parczyk, K.; Bader, B. Assay Drug Dev. Technol. 2008, 6, 39-53.)
• 1. Remove culture medium from the plate by inversion. • 2. Add 70 μl of compound/well. • 3. Incubate 30 min at 37° C. • 4. Stop the reaction by adding 15 μl of lysis buffer/well. • 5. Add 15 μl of d2/well. • 6. Add 15 μl of Anti-IP1 cryptate/well. • 7. Incubate 1 h at room temp on an orbital shaker at 100 RPM. • 8. Read the fluorescence in a plate reader (Tecan GeniosPro or similar)
The above sequence was performed using the HTRF IP-one kit (CisBio cat#62P1APEC). For the simultaneous assay of multiple test compounds, 96-well plates can be utilized in this assay (white plate with flat-bottom well, Falcon #353296). These were seeded overnight with 100 000 of HEK-GHSR1 stable cells/well. • Wells A1 and A2 of each plate are used as negative control (wells without d2). Compounds are typically tested in replicate at the following concentrations:
Compounds are stored at 10 mM in 100% DMSO.
1st dilution 1/10 in 100% DMSO (1 mM final concentration).
2nd dilution 1/10 in H2O (0.1 mM final concentration).
Other dilutions are performed in a 96-well plate in stimulation buffer.
The results for representative compounds of the invention are provided in the Examples.

[2] = target: T2, human ghrelin receptor (GRLN, growth hormone secretagogue receptor, hGHS-R1a) (Homo sapiens, UniProt Q92847); experiment: Competitive radioligand binding assay (ghrelin receptor), Method B1
T2 construct: purchased PerkinElmer BioSignal #RBHGHSM, lot#1887; host or cells: HEK-293 cells, stably transfected (membranes)
Protocol: Multiscreen Harvest plates-GF/C (Millipore, #MAHFC1H60) • 4. […] Bottom seal (Millipore, #MATAH0P00) • 7. […] Binding Buffer: 25 mM Hepes (pH 7.4), 1 mM CaCl2, 5 mM MgCl2. 2.5 mM EDTA, 0.4% BSA
Competition experiments were performed in a 300 μl filtration assay format. • 1. 220 μL of membranes diluted in binding buffer • 2. 40 μL of compound diluted in binding buffer • 3.
Compounds were provided frozen on dry ice at a stock concentration of 10 mM diluted in 100% DMSO and stored at −80° C. until the day of testing. On the test day, compounds were allowed to thaw at rt overnight and then diluted in assay buffer according to the desired test concentrations. Under these conditions, the maximal final DMSO concentration in the assay was 0.1%.
Plates were sealed with TopSeal-A, vortexed gently and incubated at rt for 30 min. The reaction was arrested by filtering samples through Multiscreen Harvest plates (pre-soaked in 0.5% polyethyleneimine) using a Tomtec Harvester, washed 9 times with 500 μL of cold 50 mM Tris-HCl (pH 7.4, 4° C.), and then plates were air-dried in a fumehood for 30 min. A bottom seal was applied to the plates prior to the addition of 25 μL of MicroScint-0 to each well. Plates were than sealed with TopSeal-A and counted for 30 sec per well on a TopCount Microplate Scintillation and Luminescence Counter (PerkinElmer) using a count delay of 60 sec. Results were expressed as counts per minute (cpm).
Data were analyzed by GraphPad Prism (GraphPad Software, San Diego, Calif.) using a variable slope non-linear regression analysis. […] Dmax values were calculated using the following formula: […]

[3] = target: T3, GHS-R1a receptor (HEK293 cells expressing GHS-R1a receptor) (Homo sapiens, UniProt Q92847); experiment: Fluorescence functional assay (ghrelin receptor), Method B2, agonist and antagonist mode; assay type: cell-based; conditions: functional activity as an antagonist at the ghrelin receptor, Methods B2 and B3
T3 construct: host or cells: HEK293
Protocol: • 1. ImageTrak Epi-Fluorescence system (Perkin-Elmer) • 2. MultiDrop TiterTek • 3. CO2 incubators: 5% CO2, humidified, 37° C.
• 1. Hanks' BSS without phenol red (Life Technologies) • 2. Hepes buffer • 3. Probenecid (Sigma) • 4. […] Falcon cell culture 96-well black/clear bottom plates • 6. 0.05% trypsin-EDTA • 7. Cells: HEK293 cells expressing GHS-R1a receptor (Perkin-Elmer BioSignal) were grown in DMEM (Dulbecco's Modified Eagles Medium) with 10% FBS, 1% sodium pyruvate, 1% NEAA and 400 μg/mL geneticin • 8. […] [D-Lys^3]-GHRP-6 (reference antagonist, Phoenix #031-22) • 10. Assay buffer: HBSS-20 mM Hepes containing 2.5 mM probenecid and 0.1% BSA (bovine serum albumin); pH 7.4
Stock solutions of compounds (10 mM in 100% DMSO) were provided frozen on dry ice and stored at −80° C. prior to use. […] Assay plates were then prepared by appropriate dilution in assay buffer.
Typical Final Test Concentrations (N=10) for Test Compounds (agonist):
Typical Final Test Concentrations (N=10) for Test Compounds (antagonist):
Cells were maintained in culture as indicated above. The cells were harvested at a confluency of 70-90% the day before the experiment. Growth medium was removed and the cells rinsed briefly with PBS without Ca^+2 and Mg^+2. 0.05% Trypsin was added and the plates incubated at 37° C. for 5 min to detach the cells. DMEM medium supplemented with 10% FBS was added to inactivate the trypsin and determine the cell concentration. The inoculum was adjusted to a final concentration of 200 cells/μL and dispensed at 200 μL per well into a 96-well block plate. The plates were, incubated at 37° C. overnight.
The plates were removed from the incubator and the media removed by inversion of the plates. Calcium-3 dye, 50 μL, was loaded and then incubated for 1 h at 37° C. The plate was again inverted and then 25 μL of assay buffer added. The plates were then transferred to the ImageTrak system for analysis. For agonist testing, after reading for ten (10) sec, 25 μL of 2× test compound or control was injected into the assay plate. Fluorescence was monitored for an additional 50 sec. A reading was taken every two (2) seconds for a total of 30 readings per assay point.
For antagonist testing, after reading for ten (10) sec, 12.5 μL of 3× test compound or control was injected into the assay plate and allowed to react for three (3) min.
Concentration response curves were analyzed using GraphPad Prism (GraphPad Software, San Diego, Calif.) by non-linear regression analysis (sigmoidal dose-response). EC50 values are calculated using GraphPad.
Emax values were calculated using the following formula: […]
Concentration response curves were analyzed using GraphPad Prism (GraphPad Software, San Diego, Calif.) by non-linear regression analysis (sigmoidal dose-response). IC50 values are calculated using GraphPad.
Imax values were calculated using the following formula: […]

[4] = Ghrelin receptor binding activity, Method B1

T2 sequence (Q92847 whole entry): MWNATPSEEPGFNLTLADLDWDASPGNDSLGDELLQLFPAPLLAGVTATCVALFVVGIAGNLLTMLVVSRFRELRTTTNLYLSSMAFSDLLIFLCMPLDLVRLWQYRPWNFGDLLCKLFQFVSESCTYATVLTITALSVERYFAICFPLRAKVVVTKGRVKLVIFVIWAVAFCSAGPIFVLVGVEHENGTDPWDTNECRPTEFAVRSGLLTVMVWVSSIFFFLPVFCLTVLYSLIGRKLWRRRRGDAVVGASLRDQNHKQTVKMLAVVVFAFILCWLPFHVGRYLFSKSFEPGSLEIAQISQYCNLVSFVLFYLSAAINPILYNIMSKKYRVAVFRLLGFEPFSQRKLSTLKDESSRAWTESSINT
T3 sequence (Q92847 whole entry): as above
T1 sequence (Q92847 whole entry): as above

Row | IC50 [1] [nM] | IC50 [2, 4] [nM] | Ki [2, 4] [nM] | Antagonist Activity [3] | Ki [2] [nM] | Structure (SMILES)
1 | 50 to 100 | 1 to 10 | – | – | – | CC[C@@H]1CCc2ccc(F)cc2OCCN[C@@H](C2(C)CC2)C(=O)N(C)[C@@H](C(C)O)C(=O)N[C@H](Cc2ccc(Cl)cc2)C(=O)N1 (stereo partly drawn) [Compound 1875]
2 | 100 to 500 | 10 to 100 | – | – | – | CC(O)[C@H]1C(=O)N[C@H](Cc2ccc(F)cc2)C(=O)N[C@H](C)CCc2ccccc2OCCN[C@@H](C2CCCCC2)C(=O)N1C (stereo partly drawn) [Compound 1743]
3 | 100 to 500 | 10 to 100 | – | – | – | CCC1CCc2ccc(F)cc2OCCNC(C(C)C)C(=O)N(C)C(C(C)O)C(=O)NC(Cc2ccco2)C(=O)N1 (stereo not drawn) [Compound 1824]
4 | 100 to 500 | 10 to 100 | 10 to 100 | – | – | CCC(C)C1NCCOc2ccccc2CC(C)CNC(=O)C(Cc2ccccc2)NC(=O)C(C(C)O)N(C)C1=O (mixture of isomers) [Compound 1338]
5 | – | 10 to 100 | 1 to 10 | C (C = 10-100 nM) | – | CCC(C)[C@@H]1NCCOc2ccccc2CC[C@H](C)NC(=O)[C@@H](Cc2ccccc2)NC(=O)[C@H](C(C)O)N(C)C1=O (stereo partly drawn) [Compound 1302]
6 | – | 10 to 100 | 10 to 100 | D (D = 100-500 nM) | – | CCC(C)[C@@H]1NCCOc2ccccc2/C=C/[C@H](C)NC(=O)[C@@H](Cc2ccccc2)NC(=O)[C@H](C(C)O)N(C)C1=O (stereo partly drawn) [Compound 1316]
7 | 10 to 50 | 1 to 10 | – | – | – | CC(O)[C@H]1C(=O)N[C@H](Cc2ccc(F)cc2)C(=O)NCC#Cc2c(F)cccc2OCCN[C@@H](C2(C)CC2)C(=O)N1C (stereo partly drawn) [Compound 1884]
8 | 10 to 50 | 10 to 100 | – | – | – | CC(O)[C@H]1C(=O)N[C@H](Cc2ccc(F)cc2)C(=O)NCC#Cc2ccccc2OCCN[C@@H](C2(C)CC2)C(=O)N1C (stereo partly drawn) [Compound 1879]
9 | 100 to 500 | 10 to 100 | – | – | – | CCC1CCc2ccc(F)cc2OCCNC(CC)C(=O)N(C)C(C(C)O)C(=O)NC(Cc2c[nH]c3ccccc23)C(=O)N1 (stereo not drawn) [Compound 1853]
10 | – | – | – | C (C = 10-100 nM) | 1 to 10 | CCC(C)[C@@H]1NCCOc2cc(F)ccc2CCCNC(=O)[C@@H](Cc2ccccc2)NC(=O)[C@H](C(C)O)N(C)C1=O (stereo partly drawn) [Compound 1343]
11 | – | 100 to 500 | 10 to 100 | D (D = 100-500 nM) | – | CCC(C)[C@@H]1NCCOc2ccccc2/C=C/CNC(=O)[C@@H](Cc2cccs2)NC(=O)[C@H](C(C)O)N(C)C1=O (stereo partly drawn) [Compound 1332]
12 | 100 to 500 | 10 to 100 | – | – | – | CCC(C)C1NCCOc2ccccc2C=CCNC(=O)C(Cc2c[nH]c3ccc(F)cc23)NC(=O)C(C(C)O)N(C)C1=O (stereo not drawn) [Compound 1827]
13 | – | 10 to 100 | 1 to 10 | C (C = 10-100 nM) | – | CC(O)[C@H]1C(=O)N[C@H](Cc2ccccc2)C(=O)N[C@@H](C)/C=C/c2ccccc2OCCN[C@@H](C2CC2)C(=O)N1C (stereo partly drawn) [Compound 1317]
14 | 100 to 500 | 100 to 500 | – | – | – | CCC1CCc2ccc(Cl)cc2OCCNC(C(C)C)C(=O)N(C)C(C(C)O)C(=O)NC(Cc2cccc(F)c2)C(=O)N1 (stereo not drawn) [Compound 1814]
15 | 100 to 500 | 10 to 100 | – | – | – | CCC1CCc2ccc(F)cc2OCCNC(CC)C(=O)N(C)C(C(C)O)C(=O)NC(Cc2ccc(F)cc2)C(=O)N1 (stereo not drawn) [Compound 1855]
16 | 100 to 500 | 100 to 500 | – | – | – | CCC1CCc2ccc(F)cc2OCCNC(CC)C(=O)N(C)C(C(C)O)C(=O)NC(Cc2ccccc2)C(=O)N1 (stereo not drawn) [Compound 1854]
17 | 10 to 50 | 1 to 10 | – | – | – | CC(O)[C@H]1C(=O)N[C@H](Cc2ccc(Cl)cc2)C(=O)N[C@H](C)CCc2ccc(F)cc2OCCN[C@@H](C2(C)CC2)C(=O)N1C (stereo partly drawn) [Compound 1872]
18 | 100 to 500 | 10 to 100 | – | – | – | CC(O)[C@H]1C(=O)N[C@H](Cc2ccc(Cl)cc2)C(=O)NC/C=C/c2ccccc2OCCN[C@@H](C2CCCCC2)C(=O)N1C (stereo partly drawn) [Compound 1710]
19 | 100 to 500 | 10 to 100 | – | – | – | CC(O)C1C(=O)NC(Cc2ccccc2)C(=O)NCC2CCc3cccc(c3C2)OCCNC(C2CCCCC2)C(=O)N1C (stereo not drawn) [Compound 1797]
20 | – | – | – | B (B = 1-10 nM) | – | CC(C)[C@@H]1NCCOc2ccccc2CC[C@@H](C)NC(=O)[C@@H](Cc2cc(F)c(F)c(F)c2)NC(=O)[C@H](C(C)O)N(C)C1=O (stereo partly drawn) [Compound 1411]
21 | – | – | – | B (B = 1-10 nM) | – | CC(C)[C@@H]1NCCOc2cc(F)ccc2CCCNC(=O)[C@@H](Cc2cccc(Cl)c2)NC(=O)[C@H](C(C)O)N(C)C1=O (stereo partly drawn) [Compound 1460]
22 | 10 to 50 | – | – | – | – | CC1CCc2ccccc2OCCNC(C(C)C)C(=O)N(C)C(C(C)O)C(=O)NC(Cc2c[nH]c3ncccc23)C(=O)N1 (stereo not drawn) [Compound 1408]
23 | – | – | – | C (C = 10-100 nM) | – | CC(C)[C@@H]1NCCOc2ccccc2CC[C@@H](C)NC(=O)[C@@H](Cc2cccnc2)NC(=O)[C@H](C(C)O)N(C)C1=O (stereo partly drawn) [Compound 1384]
24 | – | – | – | B (B = 1-10 nM) | – | CC(C)[C@@H]1NCCOc2cccc(F)c2CC[C@@H](C)NC(=O)[C@@H](Cc2ccccc2)NC(=O)[C@H](C(C)O)N(C)C1=O (stereo partly drawn) [Compound 1381]
25 | – | – | – | C (C = 10-100 nM) | – | CC(C)[C@@H]1NCCOc2ccccc2CC[C@@H](C)NC(=O)[C@@H](Cc2cccc(O)c2)NC(=O)[C@H](C(C)O)N(C)C1=O (stereo partly drawn) [Compound 1352]
26 | – | – | 10 to 100 | C (C = 10-100 nM) | – | CC(O)[C@H]1C(=O)N[C@H](Cc2ccccc2)C(=O)NC/C=C/c2ccccc2OCCN[C@@H](C2CCCCC2)C(=O)N1C (stereo partly drawn) [Compound 1304]
